The nature of data set [1]: Toxicity in human erythrocytes assessed as hemolytic activity. The class given is cell-based, Erythrocyte. To be noted: read-out: HD50 (the source's name).
A further data set has as its system Pseudomonas aeruginosa. Nature of the data set: Antibacterial activity against Pseudomonas aeruginosa ATCC 27853. It counts as functional.
In the next data set the test system is Staphylococcus aureus. Nature of the data set: Antibacterial activity against Staphylococcus aureus ATCC 25923. The class given is functional.
For another data set, the system named is Escherichia coli. Kind of data set: Antibacterial activity against Escherichia coli ATCC 25922. It counts as functional.

Converted amounts (≈) assume the structure as drawn.

By MIC is commonly meant the least concentration at which growth counts as inhibited. Read a low MIC as a more susceptible organism. As for `CC(C)(C)c1cc(C(C)(C)C)c2[nH]c(C(C)(C)C)c(C[C@@H](NC(=O)[C@H](N)CCCNC(=N)N)C(=O)N[C@H](CCCNC(=N)N)C(=O)NCCc3ccccc3)c2c1`, the HC50 in data set [1] amounted to 120 µg/mL. In addition, the results for the MIC against Pseudomonas aeruginosa, in the data set on Staphylococcus aureus and against Escherichia coli were 8 µg/mL (≈ 10.2 µM), 3 µg/mL (≈ 3.81 µM) and 3 µg/mL (≈ 3.81 µM), respectively.
For `CC(C)(C)c1cc(C(C)(C)C)c2[nH]c(C(C)(C)C)c(C[C@H](NC(=O)[C@H](N)CCCNC(=N)N)C(=O)N[C@@H](CCCNC(=N)N)C(=O)NCCc3ccccc3)c2c1`, in data set [1], the HC50 turned out to be 175 µg/mL. Also, the MIC came to 10 µg/mL (≈ 12.7 µM) against Pseudomonas aeruginosa, 2 µg/mL (≈ 2.54 µM) in the data set on Staphylococcus aureus and 3 µg/mL (≈ 3.81 µM) with Escherichia coli.
Regarding `CC(C)(C)c1cc(C(C)(C)C)c2[nH]c(C(C)(C)C)c(C[C@@H](NC(=O)[C@@H](N)CCCNC(=N)N)C(=O)N[C@H](CCCNC(=N)N)C(=O)NCCc3ccccc3)c2c1`, the HC50 in data set [1] was found to be 135 µg/mL. Moreover, the MIC against Pseudomonas aeruginosa came to 8 µg/mL (≈ 10.2 µM); in the data set on Staphylococcus aureus, 2 µg/mL (≈ 2.54 µM); against Escherichia coli it was 4 µg/mL (≈ 5.08 µM).
The corresponding values for `CC(C)(C)c1cc(C(C)(C)C)c2[nH]c(C(C)(C)C)c(C[C@@H](NC(=O)[C@@H](N)CCCNC(=N)N)C(=O)N[C@@H](CCCNC(=N)N)C(=O)NCCc3ccccc3)c2c1` are 510 µg/mL, 30 µg/mL (≈ 38.1 µM), 3 µg/mL (≈ 3.81 µM) and 9 µg/mL (≈ 11.4 µM).
For `CC(C)(C)c1cc(C(C)(C)C)c2[nH]c(C(C)(C)C)c(C[C@H](NC(=O)[C@H](N)CCCNC(=N)N)C(=O)N[C@H](CCCNC(=N)N)C(=O)NCCc3ccccc3)c2c1`, in that order: 600 µg/mL, 50 µg/mL (≈ 63.4 µM), 3 µg/mL (≈ 3.81 µM) and 7 µg/mL (≈ 8.88 µM).
Turning to `CC(C)(C)c1cc(C(C)(C)C)c2[nH]c(C(C)(C)C)c(C[C@H](NC(=O)[C@@H](N)CCCNC(=N)N)C(=O)N[C@H](CCCNC(=N)N)C(=O)NCCc3ccccc3)c2c1`, the HC50 in data set [1] was 535 µg/mL. The MIC in the data set on Pseudomonas aeruginosa was 50 µg/mL (≈ 63.4 µM); against Staphylococcus aureus, 3 µg/mL (≈ 3.81 µM); with Escherichia coli, 10 µg/mL (≈ 12.7 µM).
The corresponding values for `CC(C)(C)c1cc(C(C)(C)C)c2[nH]c(C(C)(C)C)c(C[C@@H](NC(=O)[C@H](N)CCCNC(=N)N)C(=O)N[C@@H](CCCNC(=N)N)C(=O)NCCc3ccccc3)c2c1` are 605 µg/mL, 50 µg/mL (≈ 63.4 µM), 4 µg/mL (≈ 5.08 µM) and 10 µg/mL (≈ 12.7 µM).
For `CC(C)(C)c1cc(C(C)(C)C)c2[nH]c(C(C)(C)C)c(C[C@H](NC(=O)[C@@H](N)CCCNC(=N)N)C(=O)N[C@@H](CCCNC(=N)N)C(=O)NCCc3ccccc3)c2c1` [LTX-109], in that order: 175 µg/mL, 8 µg/mL (≈ 10.2 µM), 2 µg/mL (≈ 2.54 µM) and 3 µg/mL (≈ 3.81 µM).

For the origin of these results see ChEMBL document CHEMBL1817663, “A synthetic antimicrobial peptidomimetic (LTX 109): stereochemical impact on membrane disruption” (J Med Chem, 2011).
